Results taken from patent publication US11358965B2, “EGFR dimer disruptors and use of the same” (THE REGENTS OF THE UNIVERSITY OF MICHIGAN, priority 2018, dated 2022).
pIC50: −log10 of the molar value.

What was measured:
RKO cells = experiment: Clonogenic IC50, RKO; format: cell-based; conditions: Homo sapiens
MCR5 cells = experiment: Clonogenic IC50, MCR5; format: cell-based; conditions: MCR5, MCR5
Description: (§1) It was determined if the response to Compound 8C correlates with inhibition of EGF-induced dimerization and degradation of EGFR. For this, PC9-AZR cells were treated for 1 hour with 1 μM Compound 8C and an additional 30 minutes with EGF (30 ng/ml) and 30 minutes with disuccinimidyl suberate (DSS, 150 μM) to cross-link interacting proteins. Lysates were prepared and immunoblotted with anti-EGFR antibodies.
The viability of cells upon treatment was assessed by CellTiter-Blue® reagent following the manufacturer's protocol in RKO, UM10B, UM1, MCR5, and UMCC92 cells. Briefly, 10,000 cells were plated in 96-well plate in quadruplets. One day after seeding, cells were treated with a range of concentrations (0.1 to 30 micromolar). 3-days post-treatment, cells were incubated with the CellTiter-Blue® reagent for 4 hr. Only the viable cells convert the redox dye (reszurin) into a fluorescent product (resofurin). The emission of fluorescence (excitation 560 nm) was measured at […]. The IC50 value was calculated as the mean concentration of compounds required to inhibit cell proliferation as measured by the fluorescence at […] by 50 percent compared to the vehicle-treated controls.

UMCC92 cells = experiment: Clonogenic IC50, UMCC92; format: cell-based
SK-MEL-5 = experiment: NCI 60 cell line screen, SK-MEL-5; format: cell-based, human; conditions: Melanoma
Description: (§2) The activity of Compound 8C was tested against 60 different human tumor cell lines at the National Cancer Institute, using the standard NCI 60 screening protocol.

HCT-116 = experiment: NCI 60 cell line screen, HCT-116; format: cell-based, human; conditions: Colon Cancer
Description: as §2

M14 = experiment: NCI 60 cell line screen, M14; format: cell-based, human; conditions: Melanoma
Description: as §2

UACC-62 = experiment: NCI 60 cell line screen, UACC-62; format: cell-based, human; conditions: Melanoma
Description: as §2

LOX IMVI = experiment: NCI 60 cell line screen, LOX IMVI; format: cell-based, human; conditions: Melanoma
Description: as §2

COLO 205 = experiment: NCI 60 cell line screen, COLO 205; format: cell-based, human; conditions: Colon Cancer
Description: as §2

HT29 = experiment: NCI 60 cell line screen, HT29; format: cell-based, human; conditions: Colon Cancer
Description: as §2

UACC-257 = experiment: NCI 60 cell line screen, UACC-257; format: cell-based, human; conditions: Melanoma
Description: as §2

MDA-MB-468 = experiment: NCI 60 cell line screen, MDA-MB-468; format: cell-based, human; conditions: Breast Cancer
Description: as §2

HL-60(TB) = experiment: NCI 60 cell line screen, HL-60(TB); format: cell-based, human; conditions: Leukemia
Description: as §2

MDA-MB-231/ATCC = experiment: NCI 60 cell line screen, MDA-MB-231/ATCC; format: cell-based, human; conditions: Breast Cancer
Description: as §2

Microsomal half-life = format: in vitro ADME; conditions: microsomes
[1] = Stability in mouse liver microsomes; format: in vitro ADME
[2] = Stability in human liver microsomes; format: in vitro ADME
PC9-AZR = experiment: Clonogenic survival assay, PC9-AZR; format: cell-based; conditions: read-out: IC50 and IC90
EGFR = experiment: EGF-induced EGFR dimerization and EGFR degradation in PC9-AZR cells; format: cell-based; conditions: 1 μM, 1 hour, then EGF 30 ng/ml
Description: as §1

Preliminary safety test = format: in vivo, C57BL6 mice; conditions: daily dose of 30 mg/kg for one week
Description: A preliminary test on the safety of a daily dose of 30 mg/kg for one week was performed using C57BL6 mice. The overall health and weight of a group of 6 mice was monitored during treatment. A modest loss of 3.5±2.4% body weight after one week of treatment was observed, but mice fully recovered the weight 2-days after treatment cessation.

[3] = system: isogenic 6-Ba/F3 cell types (TKI sensitive and resistant); experiment: Activity in isogenic Ba/F3 cell types

`CN1CCC2(CC1)N=C(SCC(=O)Nc1cnc3ccccc3c1)C(c1ccc(Br)cc1)=N2` [Compound 8C, 2-((3-(4-bromophenyl)-8-methyl-1,4,8-triazaspiro[4.5]deca-1,3-dien-2-yl)thio)-N-(quinolin-3-yl)acetamide] gave an IC50 (RKO cells) of 1.6 µM, an IC50 (MCR5 cells) of 18.6 µM and an IC50 (UMCC92 cells) of 0.2 µM. The “Percent Growth” value (SK-MEL-5) was −96.2%, the “Percent Growth” value (HCT-116) was −90.7% and the “Percent Growth” value (M14) was −83.8%. For the same molecule, the “Percent Growth” value (UACC-62) was −78.9%, the “Percent Growth” value (LOX IMVI) was −78.5% and the “Percent Growth” value (COLO 205) was −76.2%. For the same molecule, the “Percent Growth” value (HT29) was −67.1%, the “Percent Growth” value (UACC-257) was −61.2% and the “Percent Growth” value (MDA-MB-468) was −43.8%. For the same molecule, the “Percent Growth” value (HL-60(TB)) was −40.7%, the “Percent Growth” value (MDA-MB-231/ATCC) was −40.5% and the half-life (Microsomal half-life) was > 46 min. The “stability compared to pre lead (C95)” value [1] was “approximately 20 times”, the “stability compared to pre lead (C95)” value [2] was “approximately 20 times” and the pIC50 (PC9-AZR) was 5.40 to 5.82. For the same molecule, the “EGFR dimerization and degradation of EGFR” value (EGFR) was “can inhibit EGFR dimerization and induce degradation of EGFR”, the “loss of body weight after one week of treatment” value (Preliminary safety test) was 3.5±2.4% and the “time to full weight recovery after treatment cessation” value (Preliminary safety test) was 2 days. The “activity in each Ba/F3 cell line” value [3] was “active in the nanomolar range”.
